PMC4281096 (Journal of Medicinal Chemistry, 2014)

Key:
[1] = ref [24], cited from earlier work; for isomerization after 6 days: acetonitrile/water solution
[2] = test system: SJSA-1 osteosarcoma tumor cell line
[3] = 17D 200 mg/kg or 31 100 mg/kg, daily oral 14 days
[4] = target: recombinant human His-tagged MDM2 protein (residues 1–118) (Homo sapiens, UniProt Q00987); details: in words
[5] = test system: p53 activation and apoptosis in SJSA-1 tumor tissue; details: mouse, in vivo, po, 100 mg/kg
[6] = test system: SJSA-1 osteosarcoma xenografts; details: 100 mg/kg, orally daily for 14 days

Sequence of recombinant human His-tagged MDM2 protein (residues 1–118) (Q00987 1-118): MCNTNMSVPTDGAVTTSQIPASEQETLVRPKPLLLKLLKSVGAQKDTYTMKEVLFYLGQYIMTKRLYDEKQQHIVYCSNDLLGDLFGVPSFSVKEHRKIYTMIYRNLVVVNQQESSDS

SMILES | IC50 values in inhibition of cell growth [2] | also measured
CC(C)(C)C[C@@H]1N[C@@H](C(=O)N[C@H]2C[C@@](C)(O)C2)[C@H](c2cccc(Cl)c2F)[C@]12C(=O)Nc1cc(Cl)ccc12 [Compound 3] |  | % composition of compound in 1:1 CH3CN/H2O, 0 h ([1]; 0 h): 100%; isomerization after 6 days [1]: 2.3%
CC1(C)N[C@@H](C(=O)N[C@H]2CC[C@H](O)CC2)[C@H](c2cccc(Cl)c2F)[C@]12C(=O)Nc1cc(Cl)ccc12 [Compound 12D, (3R,4′S,5′R)-6-Chloro-4′-(3-chloro-2-fluorophenyl)-N-((1R,4R)-4-hydroxycyclohexyl)-2′,2′-dimethyl-2-oxospiro[indoline-3,3′-pyrrolidine]-5′-carboxamide] | low micromolar range | 
CCCC1(CCC)N[C@@H](C(=O)N[C@H]2CC[C@H](O)CC2)[C@H](c2cccc(Cl)c2F)[C@]12C(=O)Nc1cc(Cl)ccc12 [Compound 14D, (3R,4′S,5′R)-6-Chloro-4′-(3-chloro-2-fluorophenyl)-N-((1r,4R)-4-hydroxycyclohexyl)-2-oxo-2′,2′-di-n-propylspiro[indoline-3,3′-pyrrolidine]-5′-carboxamide] | low micromolar range | 
O=C(N[C@H]1CC[C@H](O)CC1)[C@@H]1NC2(CCC2)[C@]2(C(=O)Nc3cc(Cl)ccc32)[C@H]1c1cccc(Cl)c1F [Compound 15C, (3′S,4′S,5′R)-6″-Chloro-4′-(3-chloro-2-fluorophenyl)-N-((1R,4R)-4-hydroxycyclohexyl)-2″-oxodispiro[cyclobutane-1,2′-pyrrolidine-3′,3″-indoline]-5′-carboxamide] | low micromolar range | 
O=C(N[C@H]1CC[C@H](O)CC1)[C@@H]1NC2(CCC2)[C@@]2(C(=O)Nc3cc(Cl)ccc32)[C@H]1c1cccc(Cl)c1F [Compound 15D, (3′R,4′S,5′R)-6″-Chloro-4′-(3-chloro-2-fluorophenyl)-N-((1R,4R)-4-hydroxycyclohexyl)-2″-oxodispiro[cyclobutane-1,2′-pyrrolidine-3′,3″-indoline]-5′-carboxamide] | low micromolar range | 
O=C(N[C@H]1CC[C@H](O)CC1)[C@@H]1NC2(CCCC2)[C@@]2(C(=O)Nc3cc(Cl)ccc32)[C@H]1c1cccc(Cl)c1F [Compound 16D, (3′R,4′S,5′R)-6″-Chloro-4′-(3-chloro-2-fluorophenyl)-N-((1R,4R)-4-hydroxycyclohexyl)-2″-oxodispiro[cyclopentane-1,2′-pyrrolidine-3′,3″-indoline]-5′-carboxamide] | sub-micromolar | 
O=C(N[C@H]1CC[C@H](O)CC1)[C@@H]1NC2(CCCCC2)[C@@]2(C(=O)Nc3cc(Cl)ccc32)[C@H]1c1cccc(Cl)c1F [Compound 17D, (3′R,4′S,5′R)-6″-Chloro-4′-(3-chloro-2-fluorophenyl)-N-((1R,4R)-4-hydroxycyclohexyl)-2″-oxodispiro[cyclohexane-1,2′-pyrrolidine-3′,3″-indoline]-5′-carboxamide] | sub-micromolar | signs of toxicity during or after the treatment [3]: did not show any signs of toxicity; weight loss [3]: no weight loss
N[C@@H](C(=O)N[C@H]1CC[C@H](O)CC1)[C@H](c1cccc(Cl)c1F)C1C(=O)Nc2cc(Cl)ccc21 (stereo partly drawn) [Compound 20] |  | binding to MDM2 [4]: does not bind to MDM2
O=C(NCCN1CCOCC1)[C@@H]1NC2(CCC2)[C@]2(C(=O)Nc3cc(Cl)ccc32)[C@H]1c1cccc(Cl)c1F [Compound 22C] | low micromolar range | 
O=C(NCCN1CCOCC1)[C@@H]1NC2(CCC2)[C@@]2(C(=O)Nc3cc(Cl)ccc32)[C@H]1c1cccc(Cl)c1F [Compound 22D] | low micromolar range | 
O=C(NCCN1CCOCC1)[C@@H]1NC2(CCCCC2)[C@@]2(C(=O)Nc3cc(Cl)ccc32)[C@H]1c1cccc(Cl)c1F [Compound 23D] | sub-micromolar | 
O=C(NCC[C@H](O)CO)[C@@H]1NC2(CCC2)[C@]2(C(=O)Nc3cc(Cl)ccc32)[C@H]1c1cccc(Cl)c1F [Compound 25C] | low micromolar range | 
O=C(NCC[C@H](O)CO)[C@@H]1NC2(CCC2)[C@@]2(C(=O)Nc3cc(Cl)ccc32)[C@H]1c1cccc(Cl)c1F [Compound 25D] | low micromolar range | 
O=C(NCC[C@H](O)CO)[C@@H]1NC2(CCCCC2)[C@@]2(C(=O)Nc3cc(Cl)ccc32)[C@H]1c1cccc(Cl)c1F [Compound 26D] | sub-micromolar | 
C[C@]1(O)C[C@@H](NC(=O)[C@@H]2NC3(CCC3)[C@]3(C(=O)Nc4cc(Cl)ccc43)[C@H]2c2cccc(Cl)c2F)C1 [Compound 28C] | low micromolar range | 
C[C@]1(O)C[C@@H](NC(=O)[C@@H]2NC3(CCCCC3)[C@@]3(C(=O)Nc4cc(Cl)ccc43)[C@H]2c2cccc(Cl)c2F)C1 [Compound 29D] | sub-micromolar | 
O=C(O)c1ccc(NC(=O)[C@@H]2NC3(CCCCC3)[C@@]3(C(=O)Nc4cc(Cl)ccc43)[C@H]2c2cccc(Cl)c2F)cc1 [Compound 31, 4-((3′R,4′S,5′R)-6″-Chloro-4′-(3-chloro-2-fluorophenyl)-2″-oxodispiro[cyclohexane-1,2′-pyrrolidine-3′,3″-indoline]-5′-carboxamido)benzoic Acid] |  | PARP cleavage (apoptosis induction) in tumor tissue [5]: robust cleavage of PARP; p53 activation (accumulation of p53, MDM2 and p21 proteins) in tumor tissue [5]: effectively activated p53; mice with no detectable tumor ([6]; day 25, of eight mice): three; tumor regression ([6]; in words): achieved significant tumor regression; signs of toxicity during or after the treatment [3]: did not show any signs of toxicity; weight loss [3]: no weight loss
CC(C)(C)C[C@@H]1N[C@@H](C(=O)NCCN2CCOCC2)[C@H](c2cccc(Cl)c2F)[C@]12C(=O)Nc1cc(Cl)ccc12 [MI-63] |  | isomerization after 6 days [1]: 17.3%
CC(C)(C)C[C@@H]1N[C@@H](C(=O)NCC[C@H](O)CO)[C@H](c2cccc(Cl)c2F)[C@]12C(=O)Nc1cc(Cl)ccc12 [MI-147] |  | isomerization after 6 days [1]: 8.6%
